Assay results: US20180353501A1 (Arvinas, Inc., priority 2017, published 2018)

Columns and labels:
[1] = target: T1, MET (M1250T) (Homo sapiens, UniProt P08581, M1250T); assay: KINOMEscan in vitro kinase binding; conditions: screened at 1000 nM; lower number = stronger binding
T1 construct: purchased DiscoverRx Corporation (KINOMEscan platform, service)
Method: (§1) PROTAC in vitro binding affinities (Kd) to c-Met was determined using the KINOMEscan™ platform (DiscoverRx Corporation). The compounds were solubilized in DMSO and sent to DiscoverRx Corporation as 10 μM stock solutions.

[2] = target: T2, MET (Homo sapiens, UniProt P08581); assay: KINOMEscan in vitro kinase binding; conditions: screened at 1000 nM
T2 construct: purchased DiscoverRx Corporation (KINOMEscan platform, service)
Method: as §1

[3] = target: T3, MET (Y1235D) (Homo sapiens, UniProt P08581, Y1235D); assay: KINOMEscan in vitro kinase binding; conditions: screened at 1000 nM; lower number = stronger binding
T3 construct: purchased DiscoverRx Corporation (KINOMEscan platform, service)
Method: as §1

[4] = target: T4, MAK (Homo sapiens, UniProt P20794); assay: KINOMEscan in vitro kinase binding; conditions: screened at 1000 nM; lower number = stronger binding
T4 construct: purchased DiscoverRx Corporation (KINOMEscan platform, service)
Method: In Vitro Kinase Binding Affinity Determination for Example 1 and Example 2.
as §1
Example 1 and Example 2 were screened at a 1000 nM concentration, and the results of the binding interactions are reported in “% Ctrl”, where a lower number indicates stronger binding. % Ctrl=[(test compound signal−positive control signal)/(negative control signal−positive control signal)]×100, wherein the negative control was DMSO.

[5] = target: T5, His-p38δ (Homo sapiens, UniProt O15264); assay: SPR binary affinity, compound on immobilized His-p38δ; type: binding; conditions: for Kd: His-p38δ immobilized, read-out: PROTAC:p38δ Kd
T5 construct: encoding a region spanning amino acids 1-365 was PCR-amplified; made in house; host or cells: E. coli BL21-CodonPlus(DE3)-RIPL
T5 sequence (O15264 1-365): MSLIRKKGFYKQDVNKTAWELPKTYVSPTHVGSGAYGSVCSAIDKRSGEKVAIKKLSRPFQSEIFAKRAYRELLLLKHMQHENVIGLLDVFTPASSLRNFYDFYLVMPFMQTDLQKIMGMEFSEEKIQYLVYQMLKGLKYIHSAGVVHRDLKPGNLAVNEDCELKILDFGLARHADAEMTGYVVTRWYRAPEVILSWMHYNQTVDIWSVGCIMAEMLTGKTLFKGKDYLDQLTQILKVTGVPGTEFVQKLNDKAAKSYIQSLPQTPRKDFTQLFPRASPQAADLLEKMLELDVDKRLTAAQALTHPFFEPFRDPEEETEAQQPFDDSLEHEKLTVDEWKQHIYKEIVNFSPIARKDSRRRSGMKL
Method: FIGS. 16A, 16B, and 16C. SPR curves assessing binary and ternary interactions. […] Equimolar p38δ:PROTAC mixtures were injected onto immobilized GST-VBC and allowed to dissociate overtime. […] See Table 12 for a summary of the binary and ternary affinity and kinetic measurements. […] Next, with the same setup, equimolar p38δ:PROTAC dilutions were successively injected onto immobilized VHL for 60 seconds, prior to monitoring complex dissociation for the remaining 300 seconds. This SPR strategy enabled us to determine effective ternary affinities for a given p38δ:PROTAC:VHL complex and compare the relative affinity change that occurs between VHL:PROTAC when p38δ is present in the mixture. […] This p38δ region was cloned into a pET28a vector containing an N-terminal His6 tag using NheI and BamHI restriction sites. As before, BL21-CodonPlus(DE3)-RIPL E. coli cells (Agilent Technologies) were transformed with pET[…]6-p38delta and were selected in LB medium containing kanamycin (50 μg mL^1), chloramphenicol (15 μg mL^-1), and spectinomycin (50 μg mL^-1) at 37° C. until OD600=0.8. […] Pure fractions of p38δ were pooled, concentrated to 3 mg mL^-1, aliquoted, and flash-frozen before storing at -80° C. SPR experiments were conducted on a Biacore 3000 instrument (GE Healthcare) at room temperature. GST antibody was immobilized through direct amination onto a carboxymethylated dextran surface (CM5) and GST-VBC was captured on the CM5 surface. This prepared surface was equilibrated over three hours in running buffer (10 mM HEPES buffer pH 7.4, 150 mM NaCl, 0.4 mg mL^-1 BSA, 0.005% P20, 2% DMSO). All compounds were prepared in 100% DMSO stock plates with a top concentration of 500 μM in a 3× serial dilution. Exemplary compounds were transferred from the stock plate to the assay plate and diluted into running buffer without DMSO. Equimolar concentration of target protein was added to corresponding compound wells. All exemplary compounds were run as a twelve point-concentration series with a final assay top concentration of 50 μM to measure p38δ:PROTAC and VHL:PROTAC binding and top concentration of 5 μM to measure p38δ:PROTAC:VHL binding. All exemplary compounds were injected for 60 seconds and allowed to dissociate for 300 seconds. Data analysis was performed in Scrubber 2 (BioLogic Software). Blanks from reference flow cell containing immobilized GST-VBC were subtracted to correct for noise and data was solvent-corrected against a standard DMSO curve.

T4 sequence (P20794 whole entry): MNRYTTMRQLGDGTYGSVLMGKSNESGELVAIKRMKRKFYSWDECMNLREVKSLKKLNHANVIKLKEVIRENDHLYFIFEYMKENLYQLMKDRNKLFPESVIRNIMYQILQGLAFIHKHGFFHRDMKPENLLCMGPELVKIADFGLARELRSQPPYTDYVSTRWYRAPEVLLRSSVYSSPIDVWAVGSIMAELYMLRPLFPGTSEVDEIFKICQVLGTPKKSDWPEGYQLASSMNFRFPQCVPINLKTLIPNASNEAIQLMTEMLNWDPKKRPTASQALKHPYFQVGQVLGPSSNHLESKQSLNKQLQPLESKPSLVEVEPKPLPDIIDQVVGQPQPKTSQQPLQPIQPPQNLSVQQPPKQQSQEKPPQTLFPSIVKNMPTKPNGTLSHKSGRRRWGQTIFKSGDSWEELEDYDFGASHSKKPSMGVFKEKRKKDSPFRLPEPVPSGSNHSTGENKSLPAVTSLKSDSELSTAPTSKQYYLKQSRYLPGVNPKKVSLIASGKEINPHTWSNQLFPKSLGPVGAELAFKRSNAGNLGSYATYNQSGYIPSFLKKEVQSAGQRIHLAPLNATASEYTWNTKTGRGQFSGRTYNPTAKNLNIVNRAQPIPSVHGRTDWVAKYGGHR

Row | % Ctrl [1] [% Ctrl] | binding to MET (in words) [2] | % Ctrl ([2]; lower number = stronger binding) [% Ctrl] | % Ctrl [3] [% Ctrl] | % Ctrl [4] [% Ctrl] | Compound | loss of affinity for p38δ compared to the PTM (foretinib) [5] | Kd [5] [nM]
1 | 6.0 | strong binding to MET | 0.75 | 8.2 | 92 | COc1cc2c(Oc3ccc(NC(=O)C4(C(=O)Nc5ccc(F)cc5)CC4)cc3F)ccnc2cc1OCCCOCCCOCCC(=O)N[C@H](C(=O)N1C[C@H](O)C[C@H]1C(=O)NCc1ccc(-c2scnc2C)cc1)C(C)(C)C [Example 1] |  | 
2 |  |  |  |  |  | COc1cc2c(Oc3ccc(NC(=O)C4(C(=O)Nc5ccc(F)cc5)CC4)cc3F)ccnc2cc1OCCOCCOCCOc1cc(-c2scnc2C)ccc1CNC(=O)[C@@H]1C[C@@H](O)CN1C(=O)[C@H](C(C)C)N1Cc2ccccc2C1=O [compound 46] | about 2 fold | 550
3 |  |  |  |  |  | COc1cc2c(Oc3ccc(NC(=O)C4(C(=O)Nc5ccc(F)cc5)CC4)cc3F)ccnc2cc1OCCCCOCCCCOCC(=O)N[C@H](C(=O)N1C[C@H](O)C[C@H]1C(=O)NCc1ccc(-c2scnc2C)cc1)C(C)(C)C [compound 50, N-(3-fluoro-4-((7-(4-(4-(2-(((S)-1-((2S,4R)-4-hydroxy-2-((4-(4-methylthiazol-5-yl)benzyl)carbamoyl)pyrrolidin-1-yl)-3,3-dimethyl-1-oxobutan-2-yl)amino)-2-oxoethoxy)butoxy)buto-xy)-6-methoxyquinolin-4-yl)oxy)phenyl)-N-(4-fluorophenyl)cyclopropane-1,1-dicarboxa-mide] | about 2 fold | 500
